In ChEMBL document CHEMBL5321259, “Synthesis and structure-activity relationship studies of naphthoquinones as STAT3 inhibitors” (Bioorg Med Chem, 2023) one finds inhibition and IC50 data, which are given here for eleven molecules.

Calls of active or inactive are those of the source. No cut-off for these calls is given here.

In assay [1] the target is Signal transducer and activator of transcription 3 (Homo sapiens) (UniProt P40763). Put plainly: Inhibition of IL-6 stimulated STAT3 phosphorylation in human A549 cells at <0.1 uM preincubated for 1 hr followed by IL-6 stimulation and measured after 1 hrs by Western blot analysis relative to control. The format is cell-based. Conditions: time 2.0 hrs. (In general: A western blot detects proteins with antibodies after separation by electrophoresis.)

The target is the same in assay [2]. Put plainly: Inhibition of STAT3 phosphorylation in human A549 cells assessed as decrease in IL-6 stimulated STAT3 phosphorylation at 0.5 to 3 uM preincubated for 1 hr followed by IL-6 stimulation and measured after 1 hrs by Western blot analysis. The format is cell-based. To be noted: dose 0.5-3 µM, time 2.0 hrs.
Assay [3] relates to A549. Put plainly: Antiproliferative activity against human A549 cells assessed as inhibition of cell growth measured after 72 hrs by WST-8 method. Conditions: A549, 72 h. The format is functional, cell-based.
In the next assay the test system is MDA-MB-231. Put plainly: Antiproliferative activity against human MDA-MB-231 cells assessed as inhibition of cell growth measured after 72 hrs by WST-8 method. In kind it is functional, cell-based. To be noted: MDA-MB-231, 72 h.
Assay [4] has as its target Signal transducer and activator of transcription 3 (Homo sapiens) (UniProt P40763). Put plainly: Inhibition of IL-6 stimulated STAT3 phosphorylation in human A549 cells at 10 uM preincubated for 1 hr followed by IL-6 stimulation and measured after 1 hrs by Western blot analysis. In kind it is cell-based. Conditions: time 2.0 hrs.
The subject of assay [5] is A549. Put plainly: Antiproliferative activity against human A549 cells measured after 24 hrs by MTT assay. In kind it is functional, cell-based. Conditions: A549, 24 h.

Chain of Signal transducer and activator of transcription 3 (Homo sapiens) (P40763 whole entry): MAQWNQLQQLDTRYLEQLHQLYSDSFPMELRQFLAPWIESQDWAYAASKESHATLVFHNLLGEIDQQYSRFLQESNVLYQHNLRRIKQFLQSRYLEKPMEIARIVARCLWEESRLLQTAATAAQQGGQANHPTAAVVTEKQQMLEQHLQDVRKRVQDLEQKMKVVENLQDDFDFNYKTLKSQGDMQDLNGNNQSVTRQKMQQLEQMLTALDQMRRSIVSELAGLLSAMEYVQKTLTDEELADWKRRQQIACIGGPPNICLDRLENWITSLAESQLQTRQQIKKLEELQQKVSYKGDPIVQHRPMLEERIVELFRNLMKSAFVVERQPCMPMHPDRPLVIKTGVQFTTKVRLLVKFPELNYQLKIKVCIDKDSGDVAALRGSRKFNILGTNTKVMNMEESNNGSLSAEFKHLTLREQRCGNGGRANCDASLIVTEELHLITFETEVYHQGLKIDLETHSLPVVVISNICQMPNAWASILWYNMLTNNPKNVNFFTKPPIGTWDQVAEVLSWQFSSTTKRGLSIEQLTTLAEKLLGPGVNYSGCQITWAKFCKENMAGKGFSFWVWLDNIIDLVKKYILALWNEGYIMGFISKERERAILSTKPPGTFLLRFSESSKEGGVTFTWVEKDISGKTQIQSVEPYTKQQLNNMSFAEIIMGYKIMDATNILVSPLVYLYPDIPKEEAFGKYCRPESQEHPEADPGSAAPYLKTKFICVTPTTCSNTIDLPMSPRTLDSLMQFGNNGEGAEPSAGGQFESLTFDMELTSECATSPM

What is called inhibition is the percentage by which the read-out fell short of the control. One may read the IC50 as the concentration that gives 50% inhibition. For `CC(=O)c1cc2c(o1)C(=O)c1cccc3c1C2=NS3(=O)=O`, the inhibition in assay [1] is 100%. Also, in assay [2], the inhibition entry is “Active”. Moreover, the values for the half-maximal inhibitory concentration (IC50) in the assay with A549 [3] and with MDA-MB-231 were 0.054 µM and 0.089 µM, respectively.
In the case of `CC(=O)c1cc2c(o1)-c1ccccc1C(=O)C2=O`, the inhibition entry in assay [2] was “Active”. Moreover, the concentration for half-maximal inhibition (IC50) in the assay on A549 [3] came to 1.7 µM; in the assay with MDA-MB-231 it was 1.5 µM.
On the same counts, the results for `CC(O)c1cc2c(o1)C(=O)c1cccc(S(=O)(=O)N(C)C)c1C2=O` (configuration not stated) are “Active”, 1.2 µM and 0.77 µM.
For `CC(=O)c1cc2c(o1)C(=O)c1ccc(S(N)(=O)=O)cc1C2=O`, the figures for the half-inhibitory concentration (IC50) with A549 [3] and with MDA-MB-231 were 0.14 µM and 0.11 µM, respectively.
Turning to `C[C@H](O)c1cc2c(o1)-c1cccc(O)c1C(=O)C2=O`, in assay [1], the inhibition came out at 100%. Moreover, the inhibition result in assay [2] was “Active”. The 50% inhibitory concentration (IC50) with A549 [3] turned out to be 0.39 µM; with MDA-MB-231, 2.4 µM.
On to `C[C@H](O)c1cc2c(o1)C(=O)c1cccc(O)c1C2=O`, for which the concentration for half-maximal inhibition (IC50) was determined as 0.16 µM in the assay on A549 [3] and 0.35 µM in the assay with MDA-MB-231.
For `CC1(C)CCC2=C(O1)c1cccc(O)c1C(=O)C2=O`, the IC50 in the assay with A549 [3] worked out at 0.63 µM; with MDA-MB-231, 1.4 µM. In assay [4], the inhibition entry was “inactive”.
Turning to `CC(O)c1cc2c(o1)C(=O)c1ccc(S(N)(=O)=O)cc1C2=O` (configuration not stated), the results for the IC50 with A549 [3] and in the assay with MDA-MB-231 were 0.49 µM and 0.31 µM, respectively.
`O=C1C(Nc2ccccc2N2CCNCC2)=CC2=NS(=O)(=O)c3cccc1c32` returned a half-inhibitory concentration (IC50) in the assay with A549 [5] of no more than 4.66 µM.
In assay [1], `CC(O)c1cc2c(o1)C(=O)c1cccc3c1C2=NS3(=O)=O` (configuration not stated) displayed an inhibition of 100%. For the same molecule, in assay [2], the inhibition entry is “Active”. The half-inhibitory concentration (IC50) with A549 [3] came out at 0.034 µM; in the assay with MDA-MB-231, 0.049 µM.
The like results for `CC(=O)c1cc2c(o1)-c1cccc(O)c1C(=O)C2=O` were, in that order, 100%, “Active”, 0.62 µM and 1.4 µM.
